Data on 13 compounds can be found in patent US7304046B2, “Phosphoramide compounds” (priority 1999, dated 2007).

Where two headings read alike, the source gives them in different places.

One test concerns UMUC3 (bladder). The test is described as follows: Growth inhibition, MTT assay, UMUC3. It counts as cell-based, human. Particulars: UMUC3, 72-h drug exposure; for IC50: read-out: IC50 growth inhibitory activity. The method, then:
(§1) The growth inhibitory properties of representative compounds of the invention were also determined by evaluating their growth inhibitory activity against a series of human tumor cell lines using a 72-h drug exposure. Cell counts were measured using the MTT assay.
For orientation: Formazan colour is commonly taken as a measure of viable cells.

The subject of another test is PaCa-2 (pancreas). The test is described as follows: Growth inhibition, MTT assay, PaCa-2. The format is cell-based, human. Particulars: PaCa-2, 72-h drug exposure; for IC50: read-out: IC50 growth inhibitory activity. How it is done: as §1
The test system of the next test is PC-3 (prostate). In words: Growth inhibition, MTT assay, PC-3. It counts as cell-based, human. Particulars: PC-3, 72-h drug exposure, read-out: IC50 growth inhibitory activity. The method, then:
as §1

The next test concerns MDA231 (breast). The test is described as follows: Growth inhibition, MTT assay, MDA231. The format is cell-based, human. Particulars: read-out: IC50 growth inhibitory activity. How it is done:
as §1

For the next test, the system named is A498 (kidney). The test is described as follows: Growth inhibition, MTT assay, A498. The format is cell-based, human. Particulars: A498, 72-h drug exposure, read-out: IC50 growth inhibitory activity. How it is done: as §1
A further test relates to A549 (lung). The test is described as follows: Growth inhibition, MTT assay, A549. The format is cell-based, human. Particulars: A549, 72-h drug exposure, read-out: IC50 growth inhibitory activity. The method, then:
as §1

The subject of the next test is HT-29 (colon). The test is described as follows: Growth inhibition, MTT assay, HT-29. Particulars: HT-29, 72-h drug exposure, read-out: IC50 growth inhibitory activity. The format is cell-based, human. How it is done:
as §1

Another test relates to IGROV (ovarian). The test is described as follows: Growth inhibition, MTT assay, IGROV. The format is cell-based, human. Particulars: 72-h drug exposure, read-out: IC50 growth inhibitory activity. How it is done:
as §1

Another test deals with HT-29 cells. The test is described as follows: Test A: in vitro cytotoxicity, clonogenic survival of HT-29 cells. The format is cell-based, human. Particulars: 2 h drug treatment, colonies after 10 days, concentration at which there is a 1% cell survival. The source says:
(§2) Test A: In Vitro Cytotoxicity (Clonogenic Survival of HT-29 and BE Cells):
(§3) The human colon carcinoma cell line HT-29 was obtained from the American Type Culture Collection (ATCC), and the BE cell line was provided by Dr. D. Ross, University of Colorado. A modification of the procedure described by Miribelli et al Cancer Research, 1985, 45, 32–39 was used to determine the clonogenic survival of the cells. HT-29 and BE cells in exponential growth were suspended in unsupplemented Eagles MEM medium (10 mL) at a final density of 1.7–2×10^5 cells/mL. Unsupplemented medium contains Minimum Essential Medium (Gibco) and HEPES (0.02 M). The drug stock solutions (0.1–40 mM) were prepared using either ethanol or dimethyl sulfoxide as solvent. The maximum amount of DMSO or ethanol used in the drug treatments was 1% of the total volume. Appropriate volumes (6.5 to 100 μL) of the drug stock solution were added to five vials of the cell suspensions, to give five different final drug concentrations, and 100 μL of solvent was added to a sixth vial for a control. The treated cells were incubated for 2 h (37° C., 5% CO2). The cells were spun down and rinsed three times with supplemented medium (3 mL) and then diluted in 5 mL of supplemented medium. Supplemented medium is prepared by adding Fetal Bovine Serum (10%), gentamicin (0.05 mg/mL), L-glutamine (0.03 mg/mL), and sodium pyruvate (0.1 mM) to unsupplemented medium. The cells were counted using a Coulter Counter and then plated at 2–3 different densities for each drug concentration and incubated for 10 days. The colonies were stained with 0.5% crystal violet in 95% ethanol and those colonies comprised of 50 or more cells were counted using a microscope and pen-style counter. The LC99 of each compound (the concentration at which there is a 1% cell survival) was determined by plotting the log surviving fraction vs. drug concentration.

Another test relates to BE cells. The test is described as follows: Test A: in vitro cytotoxicity, clonogenic survival of BE cells. The format is cell-based. Particulars: 2 h drug treatment, colonies after 10 days, concentration at which there is a 1% cell survival.
From the text: as §2, §3

A further test relates to human tumor cell lines. The test is described as follows: Growth inhibition, MTT assay, series of human tumor cell lines (all cell lines). Particulars: all cell lines of Table 2, 72-h drug exposure. The format is cell-based. How it is done:
as §1

Setting [1] is: Homo sapiens, MDA-MB-231, MDA231, 72-h drug exposure.

Usually IC50 stands for the concentration at which inhibition is half-maximal. Turning to “3-(5-Methoxy-1-methyl-4,7-indolequinonyl)methyl N,N-bis(2-bromoethyl)phosphorodiamidate [Compound 4]”, the IC50 in the test with UMUC3 (bladder) came out at 10 nM; with PaCa-2 (pancreas), 215 nM; with PC-3 (prostate), 649 nM; in the test on MDA231 (breast) (MDA231, 72-h drug exposure), 194 nM; in the test on A498 (kidney), 998 nM; in the test on A549 (lung), 398 nM. Further, the IC50 in the test with HT-29 (colon) came to 241 nM.

For the compound `COC1=CC(=O)c2c(cc(COP(=O)(N(C)CCBr)N(C)CCBr)n2C)C1=O` [Compound 5, 2-(5-Methoxy-1-methyl-4,7-indolequinonyl)methyl bis[N-methyl-N-(2-bromoethyl)]phosphorodiamidate], the IC50 with UMUC3 (bladder) (Homo sapiens) stood at 14 nM; with PaCa-2 (pancreas) (Homo sapiens), 13 nM; in the test with IGROV (ovarian) (Homo sapiens) it was 7590 nM; with PC-3 (prostate) (Homo sapiens), 420 nM; in the test with MDA231 (breast) (setting [1]) it was 210 nM; in the test on A498 (kidney) (Homo sapiens), 2650 nM. In addition, the IC50 came to 260 nM in the test with A549 (lung) (Homo sapiens) and 93 nM in the test with HT-29 (colon) (Homo sapiens). For the same compound, the “IC50 values in words” value in the test with UMUC3 (bladder) and in the test on PaCa-2 (pancreas) was “low nanomolar range” each time.

Consider `COC1=CC(=O)c2c(cc(COP(N)(=O)N(CCCl)CCCl)n2C)C1=O` (centres unmarked) [Compound 6a, 2-(5-Methoxy-1-methyl-4,7-indolequinonyl)methyl N,N-bis(2-chloroethyl)phosphorodiamidate], for which the “IC50 values in words” value with UMUC3 (bladder) and in the test with PaCa-2 (pancreas) was “low nanomolar range” in each case. Also, the IC50 in the test on UMUC3 (bladder) came out at 22 nM; in the test on PaCa-2 (pancreas), 6 nM; in the test with IGROV (ovarian), 1700 nM; in the test with PC-3 (prostate), 170 nM; in the test on MDA231 (breast) (MDA231, 72-h drug exposure) it was 3500 nM; with A498 (kidney), 862 nM. Also, the IC50 in the test on A549 (lung) worked out at 203 nM; with HT-29 (colon), 340 nM.

Turning to `COC1=CC(=O)c2c(cc(COP(N)(=O)N(CCBr)CCBr)n2C)C1=O` (centres unmarked) [Compound 6b, 2-(5-Methoxy-1-methyl-4,7-indolequinonyl)methyl N,N-bis(2-bromoethyl)phosphorodiamidate], the “IC50 values in words” value with UMUC3 (bladder) and with PaCa-2 (pancreas) was “low nanomolar range” in each case. In addition, the IC50 worked out at 1 nM with UMUC3 (bladder); 35 nM with PaCa-2 (pancreas); 1470 nM in the test on IGROV (ovarian); 195 nM in the test with PC-3 (prostate); 1630 nM in the test with MDA231 (breast) (MDA231, 72-h drug exposure); 199 nM in the test on A498 (kidney). Besides, the IC50 with A549 (lung) worked out at 9 nM; with HT-29 (colon), 61 nM.

As to `CC1=C(COP(N)(=O)N(CCCl)CCCl)C(=O)c2ccccc2C1=O` (centres unmarked) [Compound 15b, 2-(3-Methyl-1,4-naphthoquinonyl)methyl N,N-bis(2-chloroethyl) phosphorodiamidate], the figures for the LC99 in the test with HT-29 cells and with BE cells were 2.1 µM and 1.0 µM, respectively.

As for `CSC1=C(COP(N)(=O)N(CCCl)CCCl)C(=O)c2ccccc2C1=O` (centres unmarked) [Compound 15c, 2-(3-Thiomethyl-1,4-naphthoquinonyl)methyl N,N-bis(2-chloroethyl)phosphorodiamidate], the figures for the LC99 in the test on HT-29 cells and in the test with BE cells were 4.2 µM and 5.9 µM, respectively.

Regarding `NP(=O)(OCC1=C(Br)C(=O)c2ccccc2C1=O)N(CCCl)CCCl` (centres unmarked) [Compound 15d, 2-(3-Bromo-1,4-naphthoquinonyl)methyl N,N-bis(2-chloroethyl)phosphorodiamidate], the LC99 was found to be 4.1 µM with HT-29 cells and 3.3 µM with BE cells.

As to `CC1=C(COP(N)(=O)N(CCBr)CCBr)C(=O)c2ccccc2C1=O` (centres unmarked) [Compound 16b, 2-(3-Methyl-1,4-naphthoquinonyl)methyl N,N-bis(2-bromoethyl) phosphorodiamidate], the LC99 with HT-29 cells came out at 1.7 µM; with BE cells it was 1.2 µM.

Regarding `O=C1C=C(COP(=O)(NCCCl)NCCCl)C(=O)c2ccccc21` [Compound 17, 2-(1,4-Naphthoquinonyl)methyl bis[N-(2-chloroethyl)] phosphorodiamidate], the figures for the LC99 in the test on HT-29 cells and in the test with BE cells were 14 µM and 7.8 µM, respectively.

Consider `CN(CCBr)P(=O)(OCC1=CC(=O)c2ccccc2C1=O)N(C)CCBr` [Compound 40a, 2-(1,4-Naphthoquinonyl)methyl bis[N-methyl-N-(2-bromoethyl)]phosphorodiamidate], for which the IC50 came out at 9950 nM with UMUC3 (bladder); 2300 nM in the test with PaCa-2 (pancreas); 2050 nM in the test on IGROV (ovarian); 2560 nM in the test with PC-3 (prostate); 3230 nM in the test on MDA231 (breast) (MDA231, 72-h drug exposure); 4460 nM with A498 (kidney). Further, the figures for the IC50 in the test on A549 (lung) and in the test on HT-29 (colon) were 11200 nM and 5920 nM, respectively. The LC99 in the test on HT-29 cells came to 4.5 µM; with BE cells it was 1.2 µM. In addition, the “IC50 in words, against all cell lines” value in the test with human tumor cell lines is recorded as “low micromolar range”.

On to `CC1=C(COP(=O)(N(C)CCBr)N(C)CCBr)C(=O)c2ccccc2C1=O` [Compound 40b, 2-(3-Methyl-1,4-naphthoquinonyl)methyl bis[N-methyl-N-(2-bromoethyl)] phosphorodiamidate], for which the LC99 worked out at 1.5 µM in the test on HT-29 cells and 0.44 µM with BE cells.

For the compound `CN(CCCl)P(=O)(OCC1=CC(=O)c2ccccc2C1=O)N(C)CCCl` [Compound 40c, 2-(1,4-Naphthoquinonyl)methyl bis[N-methyl-N-(2-chloroethyl)]phosphorodiamidate], the values for the LC99 in the test on HT-29 cells and with BE cells were 4.5 µM and 2.8 µM, respectively.

`COC1=CC(=O)c2c(c(COP(=O)(N(C)CCBr)N(C)CCBr)cn2C)C1=O` [Compound 47, 3-(5-Methoxy-1-methyl-4,7-indolequinonyl)-methyl bis[N-methyl-N-(2-bromoethyl)] phosphorodiamidate]: the IC50 stood at 2 nM in the test on UMUC3 (bladder) (Homo sapiens); 25 nM with PaCa-2 (pancreas) (Homo sapiens); 494 nM in the test on IGROV (ovarian) (Homo sapiens); 66 nM with PC-3 (prostate) (Homo sapiens); 40 nM with MDA231 (breast) (setting [1]); 344 nM with A498 (kidney) (Homo sapiens). Further, the IC50 in the test on A549 (lung) (Homo sapiens) was determined as 23 nM; in the test on HT-29 (colon) (Homo sapiens), 65 nM. Further, the “IC50 values in words” value with UMUC3 (bladder) and with PaCa-2 (pancreas) was “low nanomolar range” in each case. The LC99 in the test with HT-29 cells came to 0.07 µM; in the test with BE cells, 0.14 µM.
